Tests used:
Format in all cases: cell-based, human
[1] = system: dedifferentiated ATSC; assay: Real time PCR of stemness and proliferation genes with inhibitor treatment; settings: FIG. 9b; for expression of Oct-4 / expression of REX1, SOX2, CDk1 and CDk2: dedifferentiated ATSC treated with inhibitor
Protocol: The expression of Rex1, CDk1 and Runx3 genes were observed by real time PCR in the same manner of the Examples 2 and 3 in cells of control group not treated with AG490 and cells of experimental group not treated with AG490 or treated with 20 μM or 30 μM. As for a quantitative control group, the expression of GAPDH (glyceraldehyde-3-phosphate dehydrogenase) was also observed.
Expressions of REX1, Oct-4, SOX2, CDk1 and CDk2 were observed by real time PCR in the same manner of Examples 2 and 3 in each of the following cases. ATSC were treated with hypoxia/DPH-derivative for 6 hours and then divided into cases including: i) sample treated with nothing; ii) sample treated with SB203580 only; iii) sample treated with PD98059 only; and iv) sample treated with SB203580 and PD98059. As for a quantitative control group, the expression of GAPDH was also confirmed. The result is illustrated in FIG. 9b.

[2] = system: dedifferentiated ATSC; assay: Western blotting of growth-related signal proteins with inhibitor treatment; settings: FIG. 9a
Text: The inventors conducted following experiment to confirm the expression pattern of growth-related signal protein and Rex-1 in ATSC treated with hypoxia/DHP-derivative. To be specific, the expression of P-Jak2 (Phosphorylated-Janus kinase 2) and P-Stat3 (Phosphorylated-signal transducer and activator of transcription3) was observed by Western blotting using anti-P-Jak2 antibody and anti-P-Stat3 antibody in the same manner explained above in Examples 2 and 3 in cells of control group not treated with AG490 (Jak2 inhibitor, Sigma) and in cells of experimental group not treated with AG490 or treated with 20 μM or 30 μM. The expression of p-STAT3 and STAT3 was observed by Western blotting using anti-p-STAT3 antibody and anti-Stat3 antibody in the same manner of the Examples 2 and 3 in a control group not treated with AG490 and experimental group treated with hypoxia/DHP-derivative for 6 hours and then treated or not treated with AG490. The expression of p-MEK (Phosphorylated-Mitogen-activated Protein/ERK Kinase), MEK, p-ERK (Phosphorylated-Extracellular signal-regulated kinases), ERK, C-myc, p-STAT3 and STAT3 proteins was observed by Western blotting in the same manner of the Examples 2 and 3 in control group not treated with PD98059 (MEX inhibitor, Sigma) and experimental group treated with hypoxia/DHP-derivative for 6 hours and then treated or not treated with PD98059. The expression of p-P38, P38, P53 and P21 protein was observed by Western blotting in the same manner of Examples 2 and 3 in control group not treated with SB203580 (P38MAPK inhibitor, Sigma) and experimental group treated with hypoxia/DHP-derivative for 6 hours and then treated or not treated with SB203580. The antibodies to each protein were purchased from Santa Cruz. The result is illustrated in FIG. 9a.

[3] = system: dedifferentiated ATSC; assay: Colony formation with inhibitor treatment; settings: dedifferentiated ATSC vs non-treated experimental group; similar to control group; FIG. 10
Protocol: The inventors conducted following experiment to confirm the actual growth of ATSC treated with hypoxia/DHP-derivative by the activity of Rex-1 and growth-related signal protein which was confirmed at Example 7-1. To be specific, cells of control group and cells of experimental group treated with HPD98059, SB203580 or AG490, or not treated were prepared, and measured for colony formation. The result is illustrated in FIG. 10.

[4] = system: dedifferentiated ATSC; assay: Cell migration with signal transmission inhibitors; settings: dedifferentiated ATSC treated with inhibitor; FIG. 15
Protocol: In the developmental procedures, cell migration is considered to be critical for normal development. Accordingly, the inventors conducted experiment as explained below to confirm the in vitro migration activity of dedifferentiated ATSC. First, experimental group was cultured in a culture medium containing control cell group and DHP-derivative under hypoxia condition for 30 minutes or 6 hours and then cultured in low serum growth medium. The cultured cells were moved onto 6-transwell plate (8 μm pore size; Costar, U.S.A) coated with laminin (Chemicon, U.S.A). The respective cells were divided on an upper layer chamber, and cultured under 37° C., 5% carbon dioxide condition for 48 hours, during which the cells were left to migrate from the upper layer chamber to the lower layer chamber. The remaining, non-migrated cells were removed from the surface of the upper layer chamber and the migrated cells in the lower layer chamber were stained with Harris hematoxylin (Sigma Aldrich, U.S.A). Cells were counted from 20-selected areas for the respective cells.
The inventors conducted experiment to confirm the signal pathway that influences the in vitro migration of ATSC which were treated with hypoxia/DHP-derivative.

[5] = vs sample not treated with inhibitor

Structure (SMILES) | expression of Rex′1, CDK1, CDK2, Nanog and Runx3 ([1]; dedifferentiated ATSC, higher concentration of AG490) | expression of P-Jak2 and P-Stat3 ([2]; higher concentration of AG490 (20 μM or 30 μM)) | cell proliferation (colony formation) [3] | expression of Oct-4 [1] | expression of REX1, SOX2, CDk1 and CDk2 [1] | expression of C-myc [2, 5] | phosphorylation of MEK [2, 5] | cell migration [4] | expression of P53 and P21 [2, 5] | phosphorylation of P38 [2, 5]
N#C/C(=C/c1ccc(O)c(O)c1)C(=O)NCc1ccccc1 [AG490] | decreased expression | decreased expression | decreased cell proliferation | – | – | – | – | – | – | –
COc1cccc(-c2cc(=O)c3ccccc3o2)c1N [PD98059] | – | – | decreased cell proliferation | not changed | decreased | decreased expression | increased phosphorylation | noticeably decreased | – | –
C[S+]([O-])c1ccc(-c2nc(-c3ccncc3)c(-c3ccc(F)cc3)[nH]2)cc1 (stereo not drawn) [SB203580] | – | – | decreased cell proliferation | not changed | decreased | – | – | noticeably decreased | increased expression | decreased phosphorylation
